From patent US20140094482A1, “BENZAZOCINE-RING COMPOUND INHIBITION OF TAU HYPERPHOSPHORYLATION” (priority 2012, published 2014)
Values joined by “and” are separate entries in the source; they are usually repeats but may differ in a detail not shown here. Equal entries are not always repeated. “Also recorded” adds a separate entry of the source. Where two headings read alike, the source gives them in different places.

Experiments:
[1] = target: FLNA pentapeptide of SEQ ID NO: 1 (Bn-VAKGL) (Homo sapiens, UniProt P21333); test: FITC-NLX-based FLNA screening assay (inhibition of FITC-naloxone binding to Bn-VAKGL); settings: for inhibition at 0.01 µM: read-out: Percent inhibition of FITC-NLX binding, 0.01 μM compound; for inhibition at 0.1 µM: read-out: Percent inhibition of FITC-NLX binding, 0.1 μM compound
kappa-opioid receptor = kappa-opioid receptor (Homo sapiens, UniProt P41145); settings: cited from earlier work
Sequence of kappa-opioid receptor (P41145 whole entry): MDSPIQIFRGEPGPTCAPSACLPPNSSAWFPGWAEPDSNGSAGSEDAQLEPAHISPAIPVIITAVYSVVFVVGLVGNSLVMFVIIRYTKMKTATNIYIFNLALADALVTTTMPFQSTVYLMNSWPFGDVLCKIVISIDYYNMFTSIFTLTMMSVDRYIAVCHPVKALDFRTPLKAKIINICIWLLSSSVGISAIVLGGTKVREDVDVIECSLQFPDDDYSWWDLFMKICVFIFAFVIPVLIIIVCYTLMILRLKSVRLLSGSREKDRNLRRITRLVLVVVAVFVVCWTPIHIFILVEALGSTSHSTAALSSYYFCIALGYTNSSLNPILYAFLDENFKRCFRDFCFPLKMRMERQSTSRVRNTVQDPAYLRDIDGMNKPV

α7nAChR-FLNA complex = target: T1, α7nAChR-FLNA complex (Rattus norvegicus, UniProt A0A8I5ZV49); test: Aβ42-induced α7nAChR-FLNA association in frontal cortical synaptosomes (anti-FLNA immunoprecipitation, Western blot); assay type: biochemical; settings: compound simultaneous with 100 nM Aβ42; vs Aβ42 alone
T1 construct: from tissue; host or cells: rat frontal cortex synaptosomes
Procedure: FIG. 2, in two panels as FIG. 2A and FIG. 2B, illustrates high-affinity FLNA-binding compounds reduce α7nAChR-FLNA association as shown by Western blots. Frontal cortical synaptosomes from 2-month-old rats (n=4) were treated with 0.1 or 1 nM concentrations of potential FLNA-binding compounds [A0040, A0068, B0055, C0137M, C0138M and (+)-naloxone (+NLX)] either simultaneously (Sim) with or 10 minutes prior (10′ pr) to Aβ42 and were analyzed for their α7nAChR-FLNA complex contents. The α7nAChR-FLNA complexes in the solubilized synaptosomes were immunoprecipitated with immobilized anti-FLNA and the α7nAChR and FLNA levels in the anti-FLNA immunoprecipitates determined by Western blotting FIG. 2A and quantified by densitometry (FIG. 2B). n=3. Data are means±SEM. […] vs. Aβ42 alone. Data for 0.1 nM simultaneous admixture are shown in diagonal hatching; data from 1 nM simultaneous admixture are shown in cross-hatching; data from 0.1 nM 10 minutes prior to Aβ42 are shown in horizontal hatching; and data from 1 nM admixture 10 minutes prior Aβ42 are shown with vertical hatching. The letter designation “M” that accompanies many of the “C-series” compounds is omitted from FIG. 2, the remaining figures and most discussions of the figures and compounds hereinafter for ease in expression. […]

ERK2 = test: Aβ42-induced ERK2 activation (pERK2) in synaptosomes; assay type: biochemical, rat; settings: 0.1 and 1 nM, simultaneous treatment
Procedure: FIG. 3, in two panels as FIG. 3A and FIG. 3B, illustrates that FLNA-binding compounds reduce Aβ-induced α7nAChR-mediated ERK2 signaling. In the same treated synaptosomes used in FIG. 2, levels of phosphorylated (activated) ERK2 (pERK2) were measured in immunoprecipitates of ERK2. Aβ42 strongly activated extracellular signal-regulated kinase 2 [ERK2; also known as mitogen-activated protein kinase 1 (MAPK1)], and all compounds studied reduced this activation with 10-minutes of pretreatment. […] Immunoprecipitates were determined by Western blotting (FIG. 3A) and quantified by densitometry (FIG. 3B). n=3. Data are means±SEM. […] vs. Aβ42 alone. Hatching is as in FIG. 2.
(§1) Synaptosomes were exposed to 100 nM Aβ42 for 30 minutes, and with […] compounds added either simultaneously or 10 minutes earlier. Controls were a vehicle (no Aβ42) and an Aβ42 alone condition.
To assess Aβ42 signaling via α7nAChR after compound administration, levels of phosphorylated ERK2 were measured in the same synaptosome preparations treated with Aβ42 and the above compounds using Western blots (FIG. 3A). Phosphorylation of ERK2 indicates its activation, which leads to tau hyperphosphorylation. Compared to the control condition, Aβ42 strongly activates ERK2. This activation is suppressed by all six compounds at 0.1 and 1 nM with 10 minute pretreatment, and also by Compound B0055 and (+)NLX with simultaneous treatment (FIG. 3B).

delta-opioid receptor = delta-opioid receptor (Homo sapiens, UniProt P41143); settings: cited from earlier work
Sequence of delta-opioid receptor (P41143 whole entry): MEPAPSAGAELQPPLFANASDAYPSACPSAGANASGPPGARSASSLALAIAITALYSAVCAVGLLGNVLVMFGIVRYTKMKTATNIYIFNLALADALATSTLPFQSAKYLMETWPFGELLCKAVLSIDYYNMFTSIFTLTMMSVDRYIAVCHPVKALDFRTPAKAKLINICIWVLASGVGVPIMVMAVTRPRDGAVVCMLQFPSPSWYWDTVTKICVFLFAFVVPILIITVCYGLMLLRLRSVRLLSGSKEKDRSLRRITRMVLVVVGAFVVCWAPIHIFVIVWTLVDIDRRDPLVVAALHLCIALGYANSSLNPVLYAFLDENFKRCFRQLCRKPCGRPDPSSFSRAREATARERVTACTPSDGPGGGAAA

FLNA [2] = target: T2, FLNA (Homo sapiens, UniProt P21333); settings: [3H]NLX binding, A7 cell membranes, Wang et al. 2008/2009, cited from earlier work
T2 construct: rather than the full protein from a cell membrane preparation; host or cells: A7 cells (membranes)
T2 sequence (P21333 whole entry): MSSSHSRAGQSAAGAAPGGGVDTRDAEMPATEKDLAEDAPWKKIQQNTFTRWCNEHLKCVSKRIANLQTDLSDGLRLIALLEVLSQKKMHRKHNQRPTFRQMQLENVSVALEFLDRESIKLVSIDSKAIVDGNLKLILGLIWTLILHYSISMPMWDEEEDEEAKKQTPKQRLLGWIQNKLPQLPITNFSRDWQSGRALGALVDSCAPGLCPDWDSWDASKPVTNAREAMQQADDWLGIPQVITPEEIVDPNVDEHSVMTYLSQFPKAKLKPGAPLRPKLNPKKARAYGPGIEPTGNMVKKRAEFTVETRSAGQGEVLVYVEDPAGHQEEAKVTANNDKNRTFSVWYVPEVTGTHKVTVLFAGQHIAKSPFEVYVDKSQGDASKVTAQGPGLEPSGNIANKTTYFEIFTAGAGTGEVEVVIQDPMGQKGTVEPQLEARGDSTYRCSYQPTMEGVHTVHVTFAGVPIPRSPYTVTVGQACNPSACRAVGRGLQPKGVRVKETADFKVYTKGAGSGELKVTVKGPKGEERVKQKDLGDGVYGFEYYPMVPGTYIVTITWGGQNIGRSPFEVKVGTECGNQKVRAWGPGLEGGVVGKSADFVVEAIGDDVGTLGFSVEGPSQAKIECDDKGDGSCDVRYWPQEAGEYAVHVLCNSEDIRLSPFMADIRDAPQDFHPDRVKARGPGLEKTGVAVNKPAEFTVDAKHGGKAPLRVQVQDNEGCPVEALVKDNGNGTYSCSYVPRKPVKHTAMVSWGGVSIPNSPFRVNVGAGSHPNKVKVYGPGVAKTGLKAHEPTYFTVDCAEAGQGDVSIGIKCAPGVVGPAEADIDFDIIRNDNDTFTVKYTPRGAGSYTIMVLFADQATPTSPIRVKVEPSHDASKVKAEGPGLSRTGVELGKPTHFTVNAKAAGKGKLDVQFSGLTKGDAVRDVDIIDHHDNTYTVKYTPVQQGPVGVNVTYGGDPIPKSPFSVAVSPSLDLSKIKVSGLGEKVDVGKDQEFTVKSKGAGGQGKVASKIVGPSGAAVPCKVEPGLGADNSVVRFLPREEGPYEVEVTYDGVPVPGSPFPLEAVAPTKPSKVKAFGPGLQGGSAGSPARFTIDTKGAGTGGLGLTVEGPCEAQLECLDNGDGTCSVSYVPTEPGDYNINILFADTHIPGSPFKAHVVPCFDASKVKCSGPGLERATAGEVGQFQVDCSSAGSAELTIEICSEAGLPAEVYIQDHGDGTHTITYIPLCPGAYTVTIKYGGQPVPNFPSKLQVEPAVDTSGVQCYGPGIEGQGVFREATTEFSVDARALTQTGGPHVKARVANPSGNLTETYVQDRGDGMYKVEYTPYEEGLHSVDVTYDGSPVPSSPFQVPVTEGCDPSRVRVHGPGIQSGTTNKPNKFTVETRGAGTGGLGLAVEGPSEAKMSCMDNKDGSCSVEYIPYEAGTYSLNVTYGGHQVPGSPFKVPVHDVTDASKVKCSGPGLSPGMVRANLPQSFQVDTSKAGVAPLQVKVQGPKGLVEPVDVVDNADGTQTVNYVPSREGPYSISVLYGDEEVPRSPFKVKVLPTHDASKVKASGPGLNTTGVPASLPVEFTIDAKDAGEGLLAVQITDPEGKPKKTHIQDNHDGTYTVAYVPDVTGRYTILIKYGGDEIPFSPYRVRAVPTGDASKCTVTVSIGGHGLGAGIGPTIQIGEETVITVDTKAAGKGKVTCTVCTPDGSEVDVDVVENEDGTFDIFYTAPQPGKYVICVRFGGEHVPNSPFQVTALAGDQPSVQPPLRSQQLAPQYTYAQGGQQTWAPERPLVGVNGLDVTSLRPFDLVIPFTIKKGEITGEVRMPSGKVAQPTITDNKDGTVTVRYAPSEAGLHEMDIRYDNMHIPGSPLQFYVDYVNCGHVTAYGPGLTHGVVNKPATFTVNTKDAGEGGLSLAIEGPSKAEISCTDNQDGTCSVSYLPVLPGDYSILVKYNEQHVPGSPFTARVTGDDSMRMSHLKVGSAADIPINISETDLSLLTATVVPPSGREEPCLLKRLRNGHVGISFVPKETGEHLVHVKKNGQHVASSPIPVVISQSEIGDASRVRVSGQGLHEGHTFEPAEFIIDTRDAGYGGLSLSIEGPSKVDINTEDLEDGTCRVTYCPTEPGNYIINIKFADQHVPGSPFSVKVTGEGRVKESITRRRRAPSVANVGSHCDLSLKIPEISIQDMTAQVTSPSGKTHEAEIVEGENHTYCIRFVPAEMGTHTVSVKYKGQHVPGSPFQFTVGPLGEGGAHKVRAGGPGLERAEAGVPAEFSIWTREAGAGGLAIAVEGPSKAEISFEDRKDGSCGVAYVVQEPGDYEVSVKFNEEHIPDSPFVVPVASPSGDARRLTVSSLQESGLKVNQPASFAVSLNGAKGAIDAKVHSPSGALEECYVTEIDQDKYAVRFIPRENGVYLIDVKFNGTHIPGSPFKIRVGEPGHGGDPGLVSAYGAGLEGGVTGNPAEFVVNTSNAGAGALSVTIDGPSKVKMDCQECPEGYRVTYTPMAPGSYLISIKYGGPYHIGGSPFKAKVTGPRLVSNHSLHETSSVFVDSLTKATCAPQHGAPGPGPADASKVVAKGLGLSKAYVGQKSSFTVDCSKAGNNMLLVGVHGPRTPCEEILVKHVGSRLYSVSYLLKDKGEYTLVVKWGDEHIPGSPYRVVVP

FLNA [3] = target: T2, FLNA; test: Inhibition of FITC-NLX binding to FLNA in membranes of A7 cells; settings: for IC50: FITC-NLX in place of [3H]NLX
Source text: 3(2):e1554 (2008), FIG. 3. FIG. 1B is a similar plot obtained from the use of FITC-labeled NLX (FITC-NLX) in place of the radio-labeled material.

FLNA [4] = target: T2, FLNA; test: Inhibition of [3H]NLX binding to membranes from FLNA-expressing A7 cells; settings: for IC50: [3H]NLX binding, A7 cell membranes, Example 3, six studies, two-site fit
mu opioid receptor (MOR) = mu opioid receptor (MOR) (Homo sapiens, UniProt P35372); settings: cited from earlier work
Sequence of mu opioid receptor (MOR) (P35372 whole entry, species assumed): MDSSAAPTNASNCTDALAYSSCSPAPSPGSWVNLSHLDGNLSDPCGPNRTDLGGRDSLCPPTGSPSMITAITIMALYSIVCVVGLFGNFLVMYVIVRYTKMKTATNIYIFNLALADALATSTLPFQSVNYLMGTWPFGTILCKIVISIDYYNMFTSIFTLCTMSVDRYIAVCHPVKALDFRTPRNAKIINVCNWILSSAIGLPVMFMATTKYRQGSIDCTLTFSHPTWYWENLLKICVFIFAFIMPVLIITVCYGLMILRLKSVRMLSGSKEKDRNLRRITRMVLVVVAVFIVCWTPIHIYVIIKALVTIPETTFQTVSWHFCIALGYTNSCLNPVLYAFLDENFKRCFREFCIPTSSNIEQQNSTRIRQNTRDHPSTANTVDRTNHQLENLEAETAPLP

tau protein = test: Aβ42-induced tau phosphorylation at S202, T231 and T181 in synaptosomes; assay type: biochemical, rat
Procedure: FIG. 4, in four panels as FIG. 4A, FIG. 4B, FIG. 4C and FIG. 4D, illustrate that FLNA-binding compounds reduce tau phosphorylation at all three hyperphosphorylation sites. […] The three phosphoepitopes of tau were detected in immunoprecipitates using specific antibodies in Western blots. […] Immunoprecipitates were determined by Western blotting (FIG. 4A) and quantified by densitometry (FIG. 4B, FIG. 4C and FIG. 4D). Data are means±SEM. […] vs. Aβ42 alone. Hatching is as in FIG. 2.
as §1
Next assessed was whether the FLNA-binding compounds also decrease hyperphosphorylation of tau, a downstream effect of Aβ42 binding to α7nAChR and ERK2 activation. The three primary phosphorylation sites on tau protein were examined for their phosphorylation levels compared to total tau protein content using Western blots (FIG. 4A). Tau, phosphorylated at these three sites, is a constituent of NFTs.

[5] = read-out: Percent Inhibition, 1 μM compound (n = 5)
[6] = read-out: Percent inhibition of FITC-NLX binding, 1 μM compound, 10 nM FITC-NLX
[7] = read-out: inhibition of binding of FITC-labeled NLX, 1 μM compound, 10 nM FITC-NLX, n=5, FIG. 11
[8] = read-out: inhibition of binding of FITC-labeled NLX

Compound: Oc1ccc2c3c1O[C@H]1[C@H](O)CC[C@@]4(O)[C@@H](C2)N(CC2CC2)CC[C@]314 [6-β-Naltrexol]
- Percent Inhibition ([1]; 1 µM): 50.5%
- Percent Inhibition ([1]; 10 µM): 64.8%

Compound: Oc1ccc2c(c1)[C@@]13CCCC[C@@]1(O)[C@@H](C2)N(CC1CCC1)CC3 [Butorphanol]
- RECEPTOR KAPPA: antagonism/agonism and relative potency (kappa-opioid receptor): +++

Compound: COc1c2c(cc3c1C(CC(=O)Cc1ccccc1F)[N+](C)(C)CC3)OCO2 (stereo not drawn) [Compound B0055]
- α7nAChR-FLNA association (α7nAChR-FLNA complex): markedly reduced
- Aβ42-induced ERK2 activation (pERK2) (ERK2): suppressed; also recorded: reduced the activation at both concentrations

Compound: CN1CC[C@]23CCCC[C@H]2[C@H]1Cc1ccc(O)cc13 [Levorphanol]
- inhibition at 1 µM ([1]; read-out: Percent Inhibition): 46.8%
- inhibition at 10 µM ([1]; read-out: Percent Inhibition): 69.4%

Compound: Oc1ccc2c3c1O[C@H]1[C@@H](O)CC[C@@]4(O)[C@@H](C2)N(CC2CCC2)CC[C@]314 [Nalbuphine]
- binding to the FLNA pentapeptide of SEQ ID NO: 1 (in words) [1]: bind well
- inhibition at 1 µM ([1]; read-out: Percent Inhibition): 65.4%
- inhibition at 10 µM ([1]; read-out: Percent Inhibition): 76.2%

Compound: C=C1CC[C@@]2(O)[C@H]3Cc4ccc(O)c5c4[C@@]2(CCN3CC2CC2)[C@H]1O5 [Nalmefene]
- inhibition at 1 µM ([1]; read-out: Percent Inhibition): 44.5%
- inhibition at 10 µM ([1]; read-out: Percent Inhibition): 66.9%

Compound: C=CCN1CC[C@]23c4c5ccc(O)c4O[C@H]2[C@@H](O)C=C[C@H]3[C@H]1C5 [Nalorphine]
- binding to the FLNA pentapeptide of SEQ ID NO: 1 (in words) [1]: bind well
- inhibition at 1 µM ([1]; read-out: Percent Inhibition): 58.7%
- inhibition at 10 µM ([1]; read-out: Percent Inhibition): 60.2%
- RECEPTOR KAPPA: antagonism/agonism and relative potency (kappa-opioid receptor): +

Compound: C=CCN1CC[C@]23c4c5ccc(O)c4O[C@H]2/C(=N/NC(=O)c2ccccc2)CC[C@@]3(O)[C@H]1C5 [Naloxone Benzoylhydrazone]
- RECEPTOR KAPPA: antagonism/agonism and relative potency (kappa-opioid receptor): −
- RECEPTOR DELTA: antagonism/agonism and relative potency (delta-opioid receptor): −

Compound: C=CCN1CC[C@]23c4c5ccc(O)c4O[C@H]2C(=O)CC[C@@]3(O)[C@H]1C5 [Naloxone]
- binding to the FLNA pentapeptide of SEQ ID NO: 1 (in words) [1]: bind well
- Percent inhibition of FITC-NLX binding ([1]; 0.01 μM compound, 10 nM FITC-NLX, listed as (−)NLX): 41.9% and 34.3% and 41.4% and 42.50%
- Percent inhibition of FITC-NLX binding ([1]; 0.1 μM compound, 10 nM FITC-NLX, listed as (−)NLX): 48.6% and 38.5% and 47.2% and 54.20%
- Percent inhibition of FITC-NLX binding ([1]; 1 μM compound, 10 nM FITC-NLX, listed as (−)NLX): 51.5% and 45.8% and 50.2% and 56.20%
- inhibition at 1 µM [1, 5]: 71.6%
- inhibition at 0.01 µM ([1]; 10 nM FITC-NLX): 43%
- inhibition at 0.1 µM ([1]; 10 nM FITC-NLX): 50.3%
- inhibition at 1 µM [1, 6]: 53.9%
- inhibition at 1 µM [1, 7]: ~75%

Compound: O=C1CC[C@@]2(O)[C@H]3Cc4ccc(O)c5c4[C@@]2(CCN3CC2CC2)[C@H]1O5 [Naltrexone]
- IC50 (FLNA [2]; read-out: IC50-H (high affinity site)): 0.00394 nM
- IC50 (FLNA [2]; read-out: IC50-L (lower affinity site)): 0.834 nM
- binding to the FLNA pentapeptide of SEQ ID NO: 1 (in words) [1]: bind well
- Percent inhibition of FITC-NLX binding ([1]; 0.01 μM compound, 10 nM FITC-NLX, listed as NTX): 37.9% and 34.8% and 38.5%
- Percent inhibition of FITC-NLX binding ([1]; 0.1 μM compound, 10 nM FITC-NLX, listed as NTX): 46.5% and 45.2% and 43.3%
- Percent inhibition of FITC-NLX binding ([1]; 1 μM compound, 10 nM FITC-NLX, listed as NTX): 55.4% and 51.6% and 48.0%
- inhibition at 1 µM [1, 5]: 76.4%
- inhibition at 0.01 µM ([1]; 10 nM FITC-NLX): 40.2%
- inhibition at 0.1 µM ([1]; 10 nM FITC-NLX): 47.4%
- inhibition at 1 µM [1, 6]: 49.1%
- inhibition at 1 µM [1, 7]: ~75%
- IC50 (FLNA [3]; read-out: IC50-H (high)): 0.00163 nM
- IC50 (FLNA [3]; read-out: IC50-L (low)): 18.8 nM
- affinity difference between the high- and low-affinity binding sites (FLNA [3]; FITC-NLX label): ~12.000 fold
- IC50 (FLNA [4]; IC50-L (low)): 0.834 nM
- IC50 (FLNA [4]; read-out: IC50-H (high)): 0.00394 nM
- affinity difference between the high- and low-affinity binding sites (FLNA [4]; [3H]NLX label): about 200 fold

Compound: Oc1ccc2c3c1O[C@H]1c4[nH]c5ccccc5c4C[C@@]4(O)[C@@H](C2)N(CC2CC2)CC[C@]314 [Naltrindole]
- RECEPTOR MU: antagonism/agonism and relative potency (mu opioid receptor (MOR)): −
- inhibition at 1 µM ([1]; read-out: Percent Inhibition): 41%
- inhibition at 10 µM ([1]; read-out: Percent Inhibition): 65%
- RECEPTOR KAPPA: antagonism/agonism and relative potency (kappa-opioid receptor): −

Compound: CN1CC[C@]23c4c5ccc(O)c4O[C@H]2[C@@H](O)C=C[C@H]3[C@H]1C5 [morphine]
- binding to the FLNA pentapeptide of SEQ ID NO: 1 (in words) [1]: do not bind well
- inhibition at 10 µM [1, 8]: 25 to 50%

Compound: Oc1ccc2c3c1O[C@H]1c4[nH]c5c(c4C[C@@]4(O)C(C2)N(CC2CC2)CC[C@]314)C[C@@]1(O)[C@H]2Cc3ccc(O)c4c3[C@@]1(CCN2CC1CC1)[C@H]5O4 [nor-Binaltrophimine]
- RECEPTOR DELTA: antagonism/agonism and relative potency (delta-opioid receptor): −

Compound: COc1ccc2c3c1O[C@H]1C(=O)CC[C@@]4(O)[C@@H](C2)N(C)CC[C@]314 [oxycodone]
- binding to the FLNA pentapeptide of SEQ ID NO: 1 (in words) [1]: do not bind well
- inhibition at 10 µM [1, 8]: 25 to 50%

Compound: COC(=O)/C=C/C(=O)N[C@@H]1CC[C@@]2(O)[C@H]3Cc4ccc(O)c5c4[C@@]2(CCN3CC2CC2)[C@H]1O5 [β-Funaltrexamine]
- Percent Inhibition ([1]; 1 µM): 49.8%
- Percent Inhibition ([1]; 10 µM): 69.4%

Compound: (+)-naloxone [(+)NLX]
- α7nAChR-FLNA association (α7nAChR-FLNA complex): markedly reduced
- Aβ42-induced ERK2 activation (pERK2) (ERK2): suppressed
- Aβ42-induced ERK2 activation (pERK2) (ERK2; listed as (+)-naloxone): reduced the activation at both concentrations
- Aβ42-induced hyperphosphorylation of tau at all three sites (tau protein; FIG. 4D, timing not specified): particularly decreased
- Aβ42-induced tau phosphorylation at S202, T231 and T181 (tau protein; simultaneous administration, both concentrations): reduced tau phosphorylation
